Like-named read-outs stand apart in the source and are kept apart here.
Tests used:
Assay in all cases: Kinase panel profiling at 1 µmol/L (MSA or IMAP), percentage inhibition
Type in all cases: biochemical
[1] = biological target: panel of 255 wild-type kinases (Homo sapiens, UniProt P19784); details: read-out: %-inhibition at 1 µmol/L, CK2α2/β
[2] = biological target: panel of 255 wild-type kinases (Homo sapiens, UniProt P21802); details: read-out: %-inhibition at 1 µmol/L, FGFR2
[3] = biological target: panel of 255 wild-type kinases (Homo sapiens, UniProt Q13164); details: read-out: %-inhibition at 1 µmol/L, Erk5
[4] = biological target: panel of 255 wild-type kinases (Homo sapiens, UniProt P42684); details: read-out: %-inhibition ARG
[5] = biological target: panel of 255 wild-type kinases (Homo sapiens, UniProt P22455); details: read-out: %-inhibition at 1 µmol/L, FGFR4
[6] = biological target: panel of 255 wild-type kinases (Homo sapiens, UniProt Q14289); details: read-out: %-inhibition at 1 µmol/L, PYK2
[7] = biological target: panel of 255 wild-type kinases (Homo sapiens, UniProt Q9H4A3); details: read-out: %-inhibition at 1 µmol/L, WNK1
[8] = biological target: panel of 255 wild-type kinases (Homo sapiens, UniProt O75676); details: read-out: %-inhibition, MSK2
[9] = biological target: panel of 255 wild-type kinases (Homo sapiens, UniProt P29597); details: read-out: %-inhibition at 1 µmol/L, TYK2
[10] = biological target: panel of 255 wild-type kinases (Homo sapiens, UniProt Q15208); details: read-out: %-inhibition, NDR1
[11] = biological target: panel of 255 wild-type kinases (Homo sapiens, UniProt P49759); details: read-out: %-inhibition at 1 µmol/L, CLK1
[12] = biological target: panel of 255 wild-type kinases (Homo sapiens, UniProt Q9HBH9); details: read-out: %-inhibition, MNK2
[13] = biological target: panel of 255 wild-type kinases (Homo sapiens, UniProt P45983); details: read-out: %-inhibition at 1 µmol/L, JNK1
[14] = biological target: panel of 255 wild-type kinases (Homo sapiens, UniProt Q9NYA1); details: read-out: %-inhibition at 1 µmol/L, SPHK1
[15] = biological target: panel of 255 wild-type kinases (Homo sapiens, UniProt P07333); details: read-out: %-inhibition at 1 µmol/L, FMS
[16] = biological target: T1, panel of 255 wild-type kinases (Homo sapiens, UniProt P52333); details: read-out: %-inhibition at 1 µmol/L, JAK3
T1 sequence (P52333 1-1124): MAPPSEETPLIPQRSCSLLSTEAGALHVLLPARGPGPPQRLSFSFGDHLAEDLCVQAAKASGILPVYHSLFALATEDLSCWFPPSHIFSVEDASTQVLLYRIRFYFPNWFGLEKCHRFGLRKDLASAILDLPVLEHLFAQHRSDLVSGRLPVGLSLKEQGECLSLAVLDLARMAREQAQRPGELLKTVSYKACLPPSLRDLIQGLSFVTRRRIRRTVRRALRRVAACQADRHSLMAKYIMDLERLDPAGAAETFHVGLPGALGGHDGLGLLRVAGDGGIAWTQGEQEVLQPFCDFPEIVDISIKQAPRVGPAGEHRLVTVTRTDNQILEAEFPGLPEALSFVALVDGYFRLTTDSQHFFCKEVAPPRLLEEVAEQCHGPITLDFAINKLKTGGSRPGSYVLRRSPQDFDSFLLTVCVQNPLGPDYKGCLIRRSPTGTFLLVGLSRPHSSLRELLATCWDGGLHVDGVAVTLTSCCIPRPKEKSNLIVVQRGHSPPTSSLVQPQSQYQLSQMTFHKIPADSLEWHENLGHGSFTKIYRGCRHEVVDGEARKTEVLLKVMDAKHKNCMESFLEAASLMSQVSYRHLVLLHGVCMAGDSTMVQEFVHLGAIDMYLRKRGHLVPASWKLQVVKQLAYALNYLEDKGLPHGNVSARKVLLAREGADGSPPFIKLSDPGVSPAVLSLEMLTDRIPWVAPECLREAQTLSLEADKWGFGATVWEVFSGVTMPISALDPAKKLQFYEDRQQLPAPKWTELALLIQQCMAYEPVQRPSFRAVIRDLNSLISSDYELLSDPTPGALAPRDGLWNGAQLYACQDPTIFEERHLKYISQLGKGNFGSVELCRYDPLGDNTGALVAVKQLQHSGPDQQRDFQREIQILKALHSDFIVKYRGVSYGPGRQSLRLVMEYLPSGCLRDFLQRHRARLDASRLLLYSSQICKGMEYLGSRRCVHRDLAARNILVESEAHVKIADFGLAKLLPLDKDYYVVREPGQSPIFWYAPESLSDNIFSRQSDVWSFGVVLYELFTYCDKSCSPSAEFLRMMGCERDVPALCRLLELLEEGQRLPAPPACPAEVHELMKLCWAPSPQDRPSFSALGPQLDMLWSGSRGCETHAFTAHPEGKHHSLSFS

[17] = biological target: panel of 255 wild-type kinases (Homo sapiens, UniProt Q9NQU5); details: read-out: %-inhibition, PAK6

Compound: CNC(=O)c1ccc(-c2cnc3ncc(Cc4ccc5ncccc5c4)n3n2)cc1F [capmatinib]
- inhibition at 1 µM [1]: -0.77%
- inhibition at 1 µM [2]: 7%
- inhibition at 1 µM [3]: -3%
- inhibition at 1 µM [4]: 3.29%
- inhibition at 1 µM [5]: 8%
- inhibition at 1 µM [6]: -2.25%
- inhibition at 1 µM [7]: -5%
- inhibition at 1 µM [8]: 1.25%
- inhibition at 1 µM [9]: 0.148%
- inhibition at 1 µM [10]: -0.897%
- inhibition at 1 µM [11]: 8%
- inhibition at 1 µM [12]: -4%
- inhibition at 1 µM [13]: -5.59%
- inhibition at 1 µM [14]: -5.27%
- inhibition at 1 µM [15]: 13%
- inhibition at 1 µM [16]: 3.32%
- inhibition at 1 µM [17]: -34%

Compound: C[C@H](Nc1ncnc2nc[nH]c12)c1cc2cccc(Cl)c2c(=O)n1-c1ccccc1 [duvelisib]
- inhibition at 1 µM ([1]; kinase CK2α2/β, 1 µmol/L single concentration): -1.47%
- inhibition at 1 µM ([2]; kinase FGFR2, 1 µmol/L single concentration): 5%
- inhibition at 1 µM ([3]; kinase Erk5, 1 µmol/L single concentration): -0.634%
- inhibition at 1 µM ([4]; ARG kinase assay, 1 µmol/L single concentration): 0.877%
- inhibition at 1 µM ([5]; kinase FGFR4, 1 µmol/L single concentration): 5%
- inhibition at 1 µM ([6]; kinase PYK2, 1 µmol/L single concentration): -3.37%
- inhibition at 1 µM ([7]; kinase WNK1, 1 µmol/L single concentration): -3%
- inhibition at 1 µM ([8]; MSK2, 1 µmol/L single concentration): -1.39%
- inhibition at 1 µM ([9]; kinase TYK2, 1 µmol/L single concentration): 2.8%
- inhibition at 1 µM ([10]; NDR1, 1 µmol/L single concentration): 0.434%
- inhibition at 1 µM ([11]; kinase CLK1, 1 µmol/L single concentration): -0.419%
- inhibition at 1 µM ([12]; MNK2, 1 µmol/L single concentration): 7%
- inhibition at 1 µM ([13]; kinase JNK1, 1 µmol/L single concentration): 0.533%
- inhibition at 1 µM ([14]; kinase SPHK1, 1 µmol/L single concentration): -3.25%
- inhibition at 1 µM ([15]; kinase FMS, 1 µmol/L single concentration): 2.22%
- inhibition at 1 µM ([16]; kinase JAK3, 1 µmol/L single concentration): 3%
- inhibition at 1 µM ([17]; PAK6, 1 µmol/L single concentration): 3.69%

Reference: paper PMC9516332 (Frontiers in Oncology, 2022)
